Source: PubChem BioAssay AID1259407 (Chemical Carcinogenesis Research Information System (CCRIS), 2018)
Active and inactive are the calls of the source. The rule behind the calls is not given here.

Test system: CCRIS mutagenicity, Ames/micronucleus/aberration tests
Assay: CCRIS mutagenicity studies
[1] = Test System: AMES SALMONELLA TYPHIMURIUM, Strain/Indicator: TA100, Metabolic Activation: NONE, Method: PREINCUBATION
[2] = Test System: AMES SALMONELLA TYPHIMURIUM, Strain/Indicator: TA98, Metabolic Activation: NONE, Method: STANDARD PLATE
[3] = Test System: AMES SALMONELLA TYPHIMURIUM, Strain/Indicator: TA100, Metabolic Activation: NONE, Method: STANDARD PLATE
[4] = Test System: MOUSE LYMPHOMA, Strain/Indicator: L5178Y (TK+/TK-), Metabolic Activation: NONE, Method: SUSPENSION/PLATE
[5] = Test System: AMES SALMONELLA TYPHIMURIUM, Strain/Indicator: TA98, Metabolic Activation: NONE, Method: PREINCUBATION
[6] = Test System: AMES SALMONELLA TYPHIMURIUM, Strain/Indicator: TA104, Metabolic Activation: NONE, Method: PREINCUBATION

CCC(CC)[N+](=O)[O-]
mutagenic call [1]: inactive; negative | mutagenic call (Test System: AMES SALMONELLA TYPHIMURIUM, Strain/Indicator: TA100, Metabolic Activation: RAT, LIVER, S-9, AROCLOR, Method: PREINCUBATION): inactive; negative | mutagenic call (Test System: AMES SALMONELLA TYPHIMURIUM, Strain/Indicator: TA102, Metabolic Activation: NONE, Method: PREINCUBATION): inactive; negative | mutagenic call (Test System: AMES SALMONELLA TYPHIMURIUM, Strain/Indicator: TA102, Metabolic Activation: RAT, LIVER, S-9, AROCLOR, Method: PREINCUBATION): inactive; negative | mutagenic call (Test System: UDS RAT HEPATOCYTES, Strain/Indicator: THY INCORP, Metabolic Activation: NONE): active; positive

Fc1c(F)c(F)c2ncccc2c1F
mutagenic call (Test System: AMES SALMONELLA TYPHIMURIUM, Strain/Indicator: TA100, Metabolic Activation: RAT LIVER S-9, PHENOBARBITAL AND 5,6-BENZOFLAVONE, Method: PREINCUBATION): active; positive

CCC(C)CO (configuration not stated)
mutagenic call (Test System: CHINESE HAMSTER V-79, Strain/Indicator: V-79 (HPRT)/6-THIOGUANINE, Metabolic Activation: NONE, Method: STANDARD PLATE): inactive; negative | mutagenic call (Test System: CHINESE HAMSTER V-79, Strain/Indicator: V-79 (HPRT)/6-THIOGUANINE, Metabolic Activation: RAT LIVER S-9, Method: STANDARD PLATE): inactive; negative

N#CC1=Cc2cccc3cccc1c23
mutagenic call [2]: inactive; negative | mutagenic call (Test System: AMES SALMONELLA TYPHIMURIUM, Strain/Indicator: TA98, Metabolic Activation: RAT, LIVER, S-9, AROCLOR 1254, Method: STANDARD PLATE): inactive; negative | mutagenic call [3]: active; positive | mutagenic call (Test System: AMES SALMONELLA TYPHIMURIUM, Strain/Indicator: TA100, Metabolic Activation: RAT, LIVER, S-9, AROCLOR 1254, Method: STANDARD PLATE): active; positive

O=S(=O)(O)c1cc(N=Nc2ccc(O)cc2)ccc1C=Cc1ccc(N=Nc2ccc(O)cc2)cc1S(=O)(=O)O
mutagenic call [4]: inactive; negative. reevaluation of results: negative | mutagenic call (Test System: MOUSE LYMPHOMA, Strain/Indicator: L5178Y (TK+/TK-), Metabolic Activation: RAT, LIVER, S-9, AROCLOR 1254, Method: SUSPENSION/PLATE): inactive; negative. reevaluation of results: negative

O=Cc1cccc(Cl)c1Cl
mutagenic call [5]: inactive; negative | mutagenic call (Test System: AMES SALMONELLA TYPHIMURIUM, Strain/Indicator: TA98, Metabolic Activation: RAT LIVER S-9, PCB, Method: PREINCUBATION): inactive; negative | mutagenic call [1]: inactive; negative | mutagenic call (Test System: AMES SALMONELLA TYPHIMURIUM, Strain/Indicator: TA100, Metabolic Activation: RAT LIVER S-9, PCB, Method: PREINCUBATION): inactive; negative | mutagenic call [6]: inactive; negative | mutagenic call (Test System: AMES SALMONELLA TYPHIMURIUM, Strain/Indicator: TA104, Metabolic Activation: RAT LIVER S-9, PCB, Method: PREINCUBATION): inactive; negative | mutagenic call (Test System: E.COLI, Strain/Indicator: WP2 UVRA, Metabolic Activation: NONE, Method: PREINCUBATION): inactive; negative | mutagenic call (Test System: E.COLI, Strain/Indicator: WP2 UVRA, Metabolic Activation: RAT LIVER S-9, PCB, Method: PREINCUBATION): inactive; negative

CC(=O)c1cc2c(cc1C)C(C)(C)C(C)C2(C)C (configuration not stated)
mutagenic call (Test System: AMES SALMONELLA TYPHIMURIUM, Strain/Indicator: TA97, Metabolic Activation: NONE, Method: STANDARD PLATE): inactive; negative | mutagenic call (Test System: AMES SALMONELLA TYPHIMURIUM, Strain/Indicator: TA97, Metabolic Activation: RAT LIVER S-9, AROCLOR 1254, Method: STANDARD PLATE): inactive; negative | mutagenic call [2]: inactive; negative | mutagenic call (Test System: AMES SALMONELLA TYPHIMURIUM, Strain/Indicator: TA98, Metabolic Activation: RAT LIVER S-9, AROCLOR 1254, Method: STANDARD PLATE): inactive; negative | mutagenic call [3]: inactive; negative | mutagenic call (Test System: AMES SALMONELLA TYPHIMURIUM, Strain/Indicator: TA100, Metabolic Activation: RAT LIVER S-9, AROCLOR 1254, Method: STANDARD PLATE): inactive; negative | mutagenic call (Test System: AMES SALMONELLA TYPHIMURIUM, Strain/Indicator: TA102, Metabolic Activation: NONE, Method: STANDARD PLATE): inactive; negative | mutagenic call (Test System: AMES SALMONELLA TYPHIMURIUM, Strain/Indicator: TA102, Metabolic Activation: RAT LIVER S-9, AROCLOR 1254, Method: STANDARD PLATE): inactive; negative

CN
mutagenic call (Test System: AMES SALMONELLA TYPHIMURIUM, Strain/Indicator: TA98, Metabolic Activation: NONE, Method: GAS EXPOSURE): inactive; negative | mutagenic call [5]: inactive; negative | mutagenic call (Test System: AMES SALMONELLA TYPHIMURIUM, Strain/Indicator: TA98, Metabolic Activation: RAT, LIVER, S-9, AROCLOR 1254 (5,15 OR 30%), Method: PREINCUBATION): inactive; negative | mutagenic call (Test System: AMES SALMONELLA TYPHIMURIUM, Strain/Indicator: TA98, Metabolic Activation: RAT, LIVER, S-9, SODIUM PHENOBARBITAL AND 5,6-BENZOFLAVONE, Method: GAS EXPOSURE): inactive; negative | mutagenic call (Test System: AMES SALMONELLA TYPHIMURIUM, Strain/Indicator: TA100, Metabolic Activation: NONE, Method: GAS EXPOSURE): inactive; negative | mutagenic call [1]: inactive; negative | mutagenic call (Test System: AMES SALMONELLA TYPHIMURIUM, Strain/Indicator: TA100, Metabolic Activation: RAT, LIVER, S-9, AROCLOR 1254 (5,15 OR 30%), Method: PREINCUBATION): inactive; negative | mutagenic call (Test System: AMES SALMONELLA TYPHIMURIUM, Strain/Indicator: TA100, Metabolic Activation: RAT, LIVER, S-9, SODIUM PHENOBARBITAL AND 5,6-BENZOFLAVONE, Method: GAS EXPOSURE): inactive; negative | mutagenic call [6]: inactive; negative | mutagenic call (Test System: AMES SALMONELLA TYPHIMURIUM, Strain/Indicator: TA104, Metabolic Activation: RAT, LIVER, S-9, AROCLOR 1254 (5,15 OR 30%), Method: PREINCUBATION): inactive; negative | mutagenic call (Test System: AMES SALMONELLA TYPHIMURIUM, Strain/Indicator: TA1535, Metabolic Activation: NONE, Method: GAS EXPOSURE): inactive; negative | mutagenic call (Test System: AMES SALMONELLA TYPHIMURIUM, Strain/Indicator: TA1535, Metabolic Activation: RAT, LIVER, S-9, SODIUM PHENOBARBITAL AND 5,6-BENZOFLAVONE, Method: GAS EXPOSURE): inactive; negative | mutagenic call (Test System: AMES SALMONELLA TYPHIMURIUM, Strain/Indicator: TA1537, Metabolic Activation: NONE, Method: GAS EXPOSURE): inactive; negative | mutagenic call (Test System: AMES SALMONELLA TYPHIMURIUM, Strain/Indicator: TA1537, Metabolic Activation: RAT, LIVER, S-9, SODIUM PHENOBARBITAL AND 5,6-BENZOFLAVONE, Method: GAS EXPOSURE): inactive; negative | mutagenic call (Test System: E. COLI, Strain/Indicator: WP2UVRA, Metabolic Activation: NONE, Method: GAS EXPOSURE): inactive; negative | mutagenic call (Test System: E. COLI, Strain/Indicator: WP2UVRA, Metabolic Activation: RAT, LIVER, S-9, SODIUM PHENOBARBITAL AND 5,6-BENZOFLAVONE, Method: GAS EXPOSURE): inactive; negative | mutagenic call [4]: active; positive
